# Assay results as given in ChEMBL document CHEMBL5500381, “Antiviral drug discovery: Pyrimidine entry inhibitors for Zika and dengue viruses” (Eur J Med Chem, 2024).
# The source made the active and inactive calls. The rule behind the calls is not given here.
# Tests used:
# Zika virus [1] = assay: Anti-viral activity against ZIKV Argentine strain INEVH116141 infected in african green monkey Vero cells at 0.1 MOI assessed as reduction in virus yield measured after 48 hrs by virus reduction assay; format: functional, organism-based
# [2] = Selectivity index, ratio of CC50 for cytotoxicity against African green monkey Vero cells to EC50 for anti-viral activity against DENV-2 Thailand/16681/1984 strain; format: toxicity, cell-based; conditions: read-out: Selectivity Index
# [3] = Cytotoxicity against African green monkey Vero cells assessed as cell viability measured after 72 hrs by MTT assay; format: toxicity, cell-based; conditions: chlorocebus sabaeus
# [4] = Selectivity index, ratio of CC50 for cytotoxicity against African green monkey Vero cells to EC50 for anti-viral activity against ZIKV Argentine strain INEVH116141; format: toxicity, cell-based; conditions: read-out: Selectivity Index
# dengue virus type 2 [5] = assay: Anti-viral activity against DENV-2 Thailand/16681/1984 strain infected in african green monkey Vero cells at 0.1 MOI assessed as reduction in virus yield measured after 48 hrs by virus reduction assay; format: functional, organism-based; conditions: Thailand/16681/1984, Vero
# [6] = Solubility of the compound in phosphate-buffered saline solution (PBS,pH 7.4) incubated for 24 hrs by shake-flask method; format: physicochemical
# [7] = Solubility of the compound in simulated intestinal fluid (SIF,pH 6.8) incubated for 24 hrs by shake-flask method; format: ADME
# [8] = Solubility of the compound in simulated gastric fluid (SGF,pH 1.2) incubated for 24 hrs by shake-flask method; format: ADME
# Zika virus [9] = assay: Inhibition of ZIKV Argentine strain INEVH116141 infection in African green monkey Vero cells assessed as internalization (INT) treated after 1 hr post infection measured after 48 hrs; format: functional
# dengue virus type 2 [10] = assay: Inhibition of DENV-2 Thailand/16681/1984 strain infection in African green monkey Vero cells assessed as post-internalization (Post-INT) treated after 2 hr post infection measured after 24 hrs; format: functional
# [11] = Plasma stability in human plasma measured at 4 hrs; format: ADME, cell-free
# Zika virus [12] = assay: Anti-viral activity against ZIKV Argentine strain INEVH116141 infected in African green monkey Vero cells at 0.1 MOI assessed as reduction in viral titer at 10 uM pre-treated for 4 hrs before cellular infection followed by infection 1 hr incubated with compound free culture medium for 48 hrs; format: functional, organism-based
# Zika virus [13] = assay: Anti-viral activity against ZIKV Argentine strain INEVH116141 infected in african green monkey Vero cells at 0.1 MOI assessed as reduction in […] at 10 uM measured after 48 hrs by epifluorescence microscopy; format: functional, organism-based
# dengue virus type 2 [14] = assay: Inhibition of DENV-2 Thailand/16681/1984 strain infection in African green monkey Vero cells assessed as internalization (INT) treated after 1 hr post infection measured after 24 to 48 hrs; format: functional; conditions: time 24-48 hrs
# Zika virus [15] = assay: Anti-viral activity against ZIKV Argentine strain INEVH116141 infected in african green monkey Vero cells at 0.1 MOI assessed as reduction in […] at 10 uM measured for 10 to 12 hrs by plaque assay; format: functional, organism-based; conditions: time 10-12 hrs
# [16] = Metabolic stability in mouse liver microsomes assessed as degradation at 3 uM in presence of NADPH measured upto 45 mins by HPLC-MS analysis; format: ADME, Microsome; conditions: read-out: CLH
# dengue virus type 2 [17] = assay: Anti-viral activity against DENV-2 Thailand/16681/1984 strain infected in african green monkey Vero cells at 0.1 MOI assessed as reduction in fluorescence at 10 uM measured after 48 hrs by epifluorescence microscopy; format: functional, organism-based
# Zika virus [18] = assay: Anti-viral activity against ZIKV Argentine strain INEVH116141 infected in African green monkey Vero cells at 0.1 MOI assessed as reduction in viral titer at 10 uM pre-treated for 2 hrs before cellular infection followed by infection 1 hr incubated with compound free culture medium for 48 hrs; format: functional, organism-based
# Zika virus [19] = assay: Anti-viral activity against ZIKV Argentine strain INEVH116141 infected in african green monkey Vero cells assessed as reduction in genome level at 10 uM measured after 48 hrs by QRT-PCR analysis; format: functional, organism-based
# [20] = Metabolic stability in mouse liver microsomes assessed as half life at 3 uM in presence of NADPH by HPLC-MS analysis; format: ADME, Microsome
# [21] = Plasma stability in human plasma measured after 24 hrs relative to control; format: ADME, cell-free; conditions: read-out: Activity
# Zika virus [22] = assay: Anti-viral activity against ZIKV Argentine strain INEVH116141 infected in african green monkey Vero cells at 0.1 MOI assessed as reduction in […] at 10 uM measured for first 8 hrs by plaque assay; format: functional, organism-based
# [23] = Permeability of the compound by PAMPA assay; format: ADME
# [24] = Plasma stability in mouse plasma measured at 4 hrs; format: ADME, cell-free
# Zika virus [25] = assay: Inhibition of ZIKV Argentine strain INEVH116141 infection in African green monkey Vero cells assessed as post-internalization (Post-INT) treated after 2 hr post infection measured after 24 hrs; format: functional
# dengue virus type 2 [26] = assay: Anti-viral activity against DENV-2 Thailand/16681/1984 strain infected in african green monkey Vero cells assessed as reduction in genome level at 10 uM measured after 48 hrs by QRT-PCR analysis; format: functional, organism-based
# Zika virus [27] = assay: Inhibition of ZIKV Argentine strain INEVH116141 infection in African green monkey Vero cells assessed as post-internalization (Post-INT) treated after 2 hr post infection measured after 48 hrs; format: functional
# dengue virus type 2 [28] = assay: Anti-viral activity against DENV-2 Thailand/16681/1984 strain infected in African green monkey Vero cells at 0.1 MOI assessed as reduction in viral titer at 10 uM pre-treated for 4 hrs before cellular infection followed by infection 1 hr incubated with compound free culture medium for 48 hrs; format: functional, organism-based
# dengue virus type 2 [29] = assay: Anti-viral activity against DENV-2 Thailand/16681/1984 strain infected in African green monkey Vero cells at 0.1 MOI assessed as reduction in viral titer at 10 uM pre-treated for 2 hrs before cellular infection followed by infection 1 hr incubated with compound free culture medium for 48 hrs; format: functional, organism-based
# Zika virus [30] = assay: Inhibition of ZIKV Argentine strain INEVH116141 infection in African green monkey Vero cells assessed as internalization (INT) treated after 1 hr post infection measured after 24 hrs; format: functional
# [31] = Metabolic stability in mouse liver microsomes assessed as intrinsic clearance at 3 uM in presence of NADPH by HPLC-MS analysis; format: ADME, Microsome
# Zika virus [32] = assay: Inhibition of ZIKV Argentine strain INEVH116141 infection in African green monkey Vero cells assessed as absorption treated with compound for 1 hr during infection at 4 degC; format: functional, organism-based
# Zika virus [33] = assay: Virucidal effect in ZIKV Argentine strain INEVH116141 strain assessed as inactivation of virus at 2.5 to 10 uM measured after 1.5 hrs incubation by viral inactivation assay; format: functional, organism-based; conditions: dose 2.5-10 µM
# dengue virus type 2 [34] = assay: Inhibition of DENV-2 Thailand/16681/1984 strain infection in African green monkey Vero cells assessed as absorption treated with compound for 1 hr during infection at 4 degC; format: functional, organism-based
# dengue virus type 2 [35] = assay: Anti-viral activity against DENV-2 Thailand/16681/1984 strain infected in african green monkey Vero cells at 0.1 MOI assessed as reduction in fluorescence at 10 uM measured for first 8 hrs by plaque assay; format: functional, organism-based
# dengue virus type 2 [36] = assay: Virucidal effect in DENV-2 Thailand/16681/1984 strain assessed as inactivation of virus at 2.5 to 10 uM measured after 1.5 hrs incubation by viral inactivation assay; format: functional, organism-based; conditions: dose 2.5-10 µM
# dengue virus type 2 [37] = assay: Anti-viral activity against DENV-2 Thailand/16681/1984 strain infected in african green monkey Vero cells at 0.1 MOI assessed as reduction in fluorescence at 10 uM measured for 10 to 12 hrs by plaque assay; format: functional, organism-based; conditions: time 10-12 hrs
# dengue virus type 2 [38] = assay: Inhibition of DENV-2 Thailand/16681/1984 strain infection in African green monkey Vero cells assessed as post-internalization (Post-INT) treated after 2 hr post infection measured after 48 hrs; format: functional
structure (smiles),measurement,setting,value
FC(F)(F)c1cc(NCc2ccc(-c3ccccc3)cc2)nc(NCCN2CCCCC2)n1,EC50,Zika virus [1],> 20 µM
same,selectivity ratio,[2],< 2
same,CC50 at 72 h,[3],36.9 µM
same,selectivity ratio,[4],< 2
same,EC50,dengue virus type 2 [5],> 20 µM
CC1(C)CC(Nc2nc(C#N)cc(Nc3ccc(-c4ccccc4)cc3)n2)CC(C)(C)N1,EC50,Zika virus [1],4.4 µM
same,selectivity ratio,[2],3.82
same,CC50 at 72 h,[3],7.5 µM
same,selectivity ratio,[4],1.7
same,EC50,dengue virus type 2 [5],1.96 µM
CC1(C)CC(Nc2nccc(Nc3ccc(-c4ccccc4)cc3)n2)CC(C)(C)N1,solubility thermodynamic at 24 h,[6],93 µg/mL
same,solubility thermodynamic at 24 h,[7],580 µg/mL
same,solubility thermodynamic at 24 h,[8],2280 µg/mL
c1ccc(-c2ccc(Nc3ccnc(NCCN4CCCCC4)n3)cc2)cc1,solubility thermodynamic at 24 h,[6],32 µg/mL
same,solubility thermodynamic at 24 h,[7],324 µg/mL
same,solubility thermodynamic at 24 h,[8],108 µg/mL
FC(F)(F)c1cc(NCc2ccc(Cl)cc2)nc(NCCN2CCCCC2)n1,inhibition (INH),Zika virus [9],29.22%
same,EC50,Zika virus [1],2.61 µM
same,inhibition (INH),dengue virus type 2 [10],73.2%
same,Stability,[11],Stable
same,Activity,Zika virus [12],Active
same,Activity,Zika virus [13],Active
same,solubility thermodynamic at 24 h,[6],507 µg/mL
same,inhibition (INH),dengue virus type 2 [14],<50%
same,Activity,Zika virus [15],Active
same,microsomal CLint at 3 µM,[16],179 µL/min/mg
same,Activity,dengue virus type 2 [17],Active
same,solubility thermodynamic at 24 h,[7],1690 µg/mL
same,Activity,Zika virus [18],inactive
same,Activity,Zika virus [19],Active
same,half-life at 3 µM,[20],8.6 min
same,selectivity ratio,[2],20.5
same,remaining at 24 h,[21],20%
same,Activity,Zika virus [22],Active
same,permeability,[23],Permeable
same,Stability,[24],Stable
same,inhibition (INH),Zika virus [25],44.86%
same,Activity,dengue virus type 2 [26],Active
same,inhibition (INH),Zika virus [27],43.7%
same,Activity,dengue virus type 2 [28],Active
same,CC50 at 72 h,[3],23.8 µM
same,Activity,dengue virus type 2 [29],Active
same,inhibition (INH),Zika virus [30],26.36%
same,CLH,[31],179 µL/min
same,inhibition,Zika virus [32],inactive
same,Activity,Zika virus [33],inactive
same,selectivity ratio,[4],9.13
same,inhibition,dengue virus type 2 [34],inactive
same,Activity,dengue virus type 2 [35],Active
same,Activity,dengue virus type 2 [36],inactive
same,Activity,dengue virus type 2 [37],Active
same,inhibition (INH),dengue virus type 2 [38],85.52%
same,EC50,dengue virus type 2 [5],1.16 µM
same,solubility thermodynamic at 24 h,[8],76 µg/mL
O=C(Nc1cc(C(F)(F)F)nc(NCCN2CCCCC2)n1)c1ccc(Cl)cc1,EC50,Zika virus [1],> 20 µM
same,selectivity ratio,[2],< 1.05
same,CC50 at 72 h,[3],20.8 µM
same,selectivity ratio,[4],< 1.05
same,EC50,dengue virus type 2 [5],> 20 µM
CC1(C)CC(Nc2nccc(NCc3ccc(Cl)cc3)n2)CC(C)(C)N1,EC50,Zika virus [1],8.14 µM
same,selectivity ratio,[2],1.54
same,CC50 at 72 h,[3],7.2 µM
same,selectivity ratio,[4],0.88
same,EC50,dengue virus type 2 [5],4.67 µM
c1ccc(-c2ccc(Nc3nc(NCCN4CCCCC4)nc4ccsc34)cc2)cc1,EC50,Zika virus [1],4.1 µM
same,selectivity ratio,[2],0.92
same,CC50 at 72 h,[3],7.5 µM
same,selectivity ratio,[4],1.83
same,EC50,dengue virus type 2 [5],8.15 µM
CN(Cc1ccc(Cl)cc1)c1cc(C(F)(F)F)nc(NCCN2CCCCC2)n1,CC50 at 72 h,[3],8.18 µM
FC(F)(F)c1cc(Nc2ccc(C3CCCCC3)cc2)nc(NCCN2CCCCC2)n1,CC50 at 72 h,[3],8.39 µM
Fc1ccc(CNc2cc(C(F)(F)F)nc(NCCN3CCCCC3)n2)cc1,EC50,Zika virus [1],16.8 µM
same,selectivity ratio,[2],2.96
same,CC50 at 72 h,[3],47.6 µM
same,selectivity ratio,[4],2.84
same,EC50,dengue virus type 2 [5],16.1 µM
COc1ccc(CNc2cc(C(F)(F)F)nc(NCCN3CCCCC3)n2)cc1,EC50,Zika virus [1],12.5 µM
same,selectivity ratio,[2],< 2
same,CC50 at 72 h,[3],38.2 µM
same,selectivity ratio,[4],3.07
same,EC50,dengue virus type 2 [5],> 20 µM
